The subject of one test is CT26 cells. Nature of the test: Anti-tumor efficacy in CT26 mouse model unresponsive to anti-PD-L1 therapy. As to conditions: Compound No. 30 10 mg/kg p.o. once a day over 14 days coadministered with anti-PD-L1 antibody 10 mg/kg i.p. every 3 days. Type of test: in vivo, Balb/c mice. As for the experimental part: The anti-tumor efficacy of Compound No. 30 was studied in a CT26 mouse model which is unresponsive to anti-PD-L1 therapy only. CT26 cells were implanted subcutaneously into Balb/c mice which were then randomized and treated either with an […], an anti-PD-L1 antibody, or Compound No. 30 of Table 2 in combination with the anti-PD-L1 antibody. Compound No. 30 was dosed 10 mg/kg, p.o. once a day over 14 days and the anti-PD-L1 antibody was dosed at 10 mg/kg i.p. every 3 days.

In another test the target is T1, AhR (Homo sapiens, UniProt P35869).
T1 construct: endogenous in cells; host or cells: Human HepG2 liver carcinoma AhR-Lucia reporter cells (DRE-luciferase reporter stably transfected)
T1 sequence (P35869 11-848): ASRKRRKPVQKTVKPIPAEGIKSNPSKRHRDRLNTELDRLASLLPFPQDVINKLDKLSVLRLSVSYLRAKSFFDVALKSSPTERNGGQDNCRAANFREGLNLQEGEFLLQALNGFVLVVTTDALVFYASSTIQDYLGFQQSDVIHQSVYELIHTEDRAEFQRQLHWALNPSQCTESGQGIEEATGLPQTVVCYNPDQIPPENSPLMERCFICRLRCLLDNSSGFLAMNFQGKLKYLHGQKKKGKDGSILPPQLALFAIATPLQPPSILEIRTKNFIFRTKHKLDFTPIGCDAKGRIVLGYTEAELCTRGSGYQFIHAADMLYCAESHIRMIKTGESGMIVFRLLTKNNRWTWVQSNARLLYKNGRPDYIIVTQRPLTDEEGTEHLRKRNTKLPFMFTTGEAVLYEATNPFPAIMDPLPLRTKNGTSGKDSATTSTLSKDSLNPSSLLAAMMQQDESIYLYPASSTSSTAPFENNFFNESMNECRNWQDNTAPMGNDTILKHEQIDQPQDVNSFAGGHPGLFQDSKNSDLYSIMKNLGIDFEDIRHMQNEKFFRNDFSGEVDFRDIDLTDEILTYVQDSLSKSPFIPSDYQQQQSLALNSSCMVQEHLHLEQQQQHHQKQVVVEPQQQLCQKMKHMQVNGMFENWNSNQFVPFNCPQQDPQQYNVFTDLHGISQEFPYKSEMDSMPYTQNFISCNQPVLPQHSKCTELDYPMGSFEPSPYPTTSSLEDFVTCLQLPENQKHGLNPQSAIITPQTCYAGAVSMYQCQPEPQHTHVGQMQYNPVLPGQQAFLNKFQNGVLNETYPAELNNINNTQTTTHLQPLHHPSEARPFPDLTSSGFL
Nature of the test: DRE-Luciferase reporter assay (HepG2-Luc). It is filed as cell-based. As to conditions: Human HepG2 liver carcinoma AhR-Lucia reporter cells; inhibition of luciferase activity induced by AhR activating ligand at its EC50. An excerpt:
AhR binds to dioxin responsive elements (DRE) upstream of the genes that it activates. One measure of AhR activity is activation of a reporter gene, such as luciferase, downstream of one or multiple DRE elements. Luciferase activity reflects activation and inhibition of AhR in the cells expressing this reporter. 20000 Human HepG2 liver carcinoma—AhR-Lucia reporter cells or Human HT29 colon adenocarcinoma-AhR reporter cells or other cell lines with a DRE-luciferase reporter stably transfected were plated in Eagle's Minimal Essential Medium, 10% heat-inactivated FBS, 1× non-essential amino acids Pen-Strep (10,000 U/mL) and Normocin (100 ug/mL) in plates (96-well, 384-well or other plates) and incubated overnight at 37° C. in a CO2 incubator and treated with and without AhR antagonists at a log dilution starting at 100 μM. […]
Cells were incubated for 24 or 48 hours or another time point and the supernatant was analyzed for determination of luciferase activity as a read-out of the AhR activation or inhibition. Luciferase was measured with the commercial kit QUANTI-Luc™ assay solution kit from InvivoGen following the manufacturer's instructions.
The level of luciferase with only agonist ligand added was the maximum signal while the luciferase with […] was the minimum signal. IC50 values were determined as the concentration which inhibits half of the luciferase activity.

pIC50: −log10 of the molar value. Where only a bound is given, the exact number is not on record here.

For the compound `C[C@H](n1cnc2c(-c3cnn(C)c3)nc(-c3ccc(Cl)cc3)cc2c1=O)C(C)(C)O` [Compound No. 30, (S)-6-(4-chlorophenyl)-3-(3-hydroxy-3-methylbutan-2-yl)-8-(1-methyl-1H-pyrazol-4-yl)pyrido[3,4-d]pyrimidin-4(3H)-one], the “tumor volume (tumor growth curves)” value in the test with CT26 cells (p=0.039, Mann-Whitney, FIG. 4A) was “reduction in tumor volume”. In addition, the tumor weight entry with CT26 cells (p=0.067, Mann-Whitney, FIG. 4B) is on record as “reduction in tumor weight”.
In turn, `O=c1c2cc(-c3ccc(OC(F)(F)F)cc3)nc(-c3cccnc3)c2ncn1C[C@@H](O)C(F)(F)F` [compound 123, (R)-8-(pyridin-3-yl)-3-(3,3,3-trifluoro-2-hydroxypropyl)-6-(4-(trifluoromethoxy)phenyl)pyrido[3,4-d]pyrimidin-4(3H)-one] gave a negative-log IC50 (pIC50) at AhR above 7.00.
